From PMC6327986 (Journal of Enzyme Inhibition and Medicinal Chemistry, 2019)

Molecular target: hCA II (Homo sapiens, UniProt P00918)
Experiment: stopped-flow CO2 hydrase assay, hCA II inhibition
Assay type: biochemical
Details: ratio of Ki values versus 3b

| fold more potent against hCA II than ferrocenyl derivative 3b [fold] | fold potency decrease against hCA II when compared to 3b [fold] | Substance |
| --- | --- | --- |
| 8 |  | [{(η^5-C5H4)–CH=N–N(H)C(O)–C6H4-4–SO2NH2}]Re(CO)3 [1b] |
| 8 |  | [{(η^5-C5H4)–CH = N–N(H)C(O)–C6H4-4–SO2NH2}]Mn(CO)3 [2b] |
|  | 4.5 | [{(η^5-C5H4)–CH = N–N(H)C(O)–CH2CH2–NH–C6H4-4–SO2NH2}]FeCp [3c] |
